Source: patent US20050112573A1, “Method of detecting toxic substance” (priority 2001, published 2005)

Test system: yeast genes (level of expressed mRNA)
Assay: DNA chip analysis of expressed mRNA of yeast genes after 2 h culture with a toxic chemical substance
Format: cell-based, Saccharomyces cerevisiae S288C
Settings: for The level of expressed mRNA in the presence of chemical substance/ (ratio to absence): transport facilitation protein gene; for The level of expressed mRNA in the presence of chemical substance/: ratio to no chemical; for The level of expressed mRNA in the presence of chemical substance/ (ratio to absence of chemical substance): stress protein genes, DNA chip
Method in brief: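 Values are treated-to-control fluorescence ratios from a whole-yeast-genome DNA chip (65° C, over 12 h hybridization) using Cy3/Cy5-labelled cDNA from mRNA. Log-phase S288C cells in YPD at 25° C were exposed 2 h to a toxicant at sublethal, growth-inhibiting concentration.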

sodium dodecylbenzosulfonate [(17)]
1.3: The level of expressed mRNA in the presence of chemical substance/The level of expressed mRNA in the absence of chemical substance (yeast gene YGR136W) | The level of expressed mRNA in the presence of chemical substance/ (yeast gene YGR153W) | The level of expressed mRNA in the presence of chemical substance/in the absence of chemical substance (yeast gene YGR254W) | The level of expressed mRNA in the presence of chemical substance/in the absence of chemical substance (yeast gene YHR044C) | The level of expressed mRNA in the presence of chemical substance/The level of expressed mRNA in the absence of chemical substance (yeast gene YHR142W) | The level of expressed mRNA in the presence of chemical substance/ (yeast gene YHR145C) | The level of expressed mRNA in the presence of chemical substance/ (ratio to absence) (yeast gene YHR175W) | The level of expressed mRNA in the presence of chemical substance/The level of expressed mRNA in the absence of chemical substance (yeast gene YIL123W) | The level of expressed mRNA in the presence of chemical substance/ (ratio to absence) (yeast gene YJR095W) | The level of expressed mRNA in the presence of chemical substance/in the absence of chemical substance (yeast gene YJR155W)
6.5: The level of expressed mRNA in the presence of chemical substance/in the absence of chemical substance (yeast gene YJL153C)
2.7: The level of expressed mRNA in the presence of chemical substance/in the absence of chemical substance (yeast gene YKL001C)
1.1: The level of expressed mRNA in the presence of chemical substance/in the absence of chemical substance (yeast gene YGR192C) | The level of expressed mRNA in the presence of chemical substance/ (yeast gene YGR223C) | The level of expressed mRNA in the presence of chemical substance/The level of expressed mRNA in the absence of chemical substance (yeast gene YGR257C) | The level of expressed mRNA in the presence of chemical substance/ (ratio to absence) (yeast gene YHL035C) | The level of expressed mRNA in the presence of chemical substance/ (yeast gene YIL097W) | The level of expressed mRNA in the presence of chemical substance/ (in its absence), gene YJL070C (yeast gene YJL070C, ratio of DNA chip fluorescence intensity to that without chemical substance) | The level of expressed mRNA in the presence of chemical substance/The level of expressed mRNA in the absence of chemical substance (yeast gene YJL073W) | The level of expressed mRNA in the presence of chemical substance/ (ratio to absence), gene YJL096W (yeast gene YJL096W, mitochondria-located protein genes, 2 h culture with chemical) | The level of expressed mRNA in the presence of chemical substance/in the absence of chemical substance (yeast gene YJR009C) | The level of expressed mRNA in the presence of chemical substance/ (ratio to absence of chemical substance) (yeast gene YJR090C) | The level of expressed mRNA in the presence of chemical substance/in the absence of chemical substance (yeast gene YJR130C) | The level of expressed mRNA in the presence of chemical substance/in the absence of chemical substance (yeast gene YJR149W) | The level of expressed mRNA in the presence of chemical substance/The level of expressed mRNA in the absence of chemical substance (yeast gene YKL041W)
2.3: The level of expressed mRNA in the presence of chemical substance/The level of expressed mRNA in the absence of chemical substance (yeast gene YGR189C)
0.5: The level of expressed mRNA in the presence of chemical substance/The level of expressed mRNA in the absence of chemical substance (yeast gene YKL096W)
1.0: The level of expressed mRNA in the presence of chemical substance/ (yeast gene YGR247W) | The level of expressed mRNA in the presence of chemical substance/ (in its absence), gene YGR287C (yeast gene YGR287C, ratio of DNA chip fluorescence intensity to that without chemical substance) | The level of expressed mRNA in the presence of chemical substance/ (ratio to absence) (yeast gene YHL036W) | The level of expressed mRNA in the presence of chemical substance/ (yeast gene YJL185C) | The level of expressed mRNA in the presence of chemical substance/ (ratio to absence) (yeast gene YKL146W)
0.9: The level of expressed mRNA in the presence of chemical substance/ (ratio to absence of chemical substance) (yeast gene YHL046C) | The level of expressed mRNA in the presence of chemical substance/ (ratio to absence) (yeast gene YHR092C) | The level of expressed mRNA in the presence of chemical substance/ (yeast gene YHR116W) | The level of expressed mRNA in the presence of chemical substance/ (yeast gene YIL083C) | The level of expressed mRNA in the presence of chemical substance/in the absence of chemical substance (yeast gene YIR030C) | The level of expressed mRNA in the presence of chemical substance/ (ratio to absence), gene YJL180C (yeast gene YJL180C, mitochondria-located protein genes, 2 h culture with chemical) | The level of expressed mRNA in the presence of chemical substance/The level of expressed mRNA in the absence of chemical substance (yeast gene YKL165C)
1.6: The level of expressed mRNA in the presence of chemical substance/ (yeast gene YGR295C) | The level of expressed mRNA in the presence of chemical substance/ (ratio to absence of chemical substance) (yeast gene YHL028W) | The level of expressed mRNA in the presence of chemical substance/in the absence of chemical substance (yeast gene YHR112C) | The level of expressed mRNA in the presence of chemical substance/ (ratio to absence) (yeast gene YIL170W) | The level of expressed mRNA in the presence of chemical substance/ (ratio to absence) (yeast gene YJL219W) | The level of expressed mRNA in the presence of chemical substance/The level of expressed mRNA in the absence of chemical substance (yeast gene YKL013C)
1.2: The level of expressed mRNA in the presence of chemical substance/ (in its absence), gene YGR288W (yeast gene YGR288W, ratio of DNA chip fluorescence intensity to that without chemical substance) | The level of expressed mRNA in the presence of chemical substance/ (yeast gene YIL060W) | The level of expressed mRNA in the presence of chemical substance/ (ratio to absence) (yeast gene YIL088C) | The level of expressed mRNA in the presence of chemical substance/ (ratio to absence) (yeast gene YIL166C) | The level of expressed mRNA in the presence of chemical substance/in the absence of chemical substance (yeast gene YJL052W) | The level of expressed mRNA in the presence of chemical substance/The level of expressed mRNA in the absence of chemical substance (yeast gene YJL089W) | The level of expressed mRNA in the presence of chemical substance/The level of expressed mRNA in the absence of chemical substance (yeast gene YJL116C) | The level of expressed mRNA in the presence of chemical substance/ (in its absence), gene YJL216C (yeast gene YJL216C, ratio of DNA chip fluorescence intensity to that without chemical substance) | The level of expressed mRNA in the presence of chemical substance/in the absence of chemical substance (yeast gene YJR010W) | The level of expressed mRNA in the presence of chemical substance/ (ratio to absence) (yeast gene YJR106W) | The level of expressed mRNA in the presence of chemical substance/The level of expressed mRNA in the absence of chemical substance (yeast gene YKL039W) | The level of expressed mRNA in the presence of chemical substance/ (yeast gene YKL133C)
2.6: The level of expressed mRNA in the presence of chemical substance/The level of expressed mRNA in the absence of chemical substance (yeast gene YHR071W)
12.8: The level of expressed mRNA in the presence of chemical substance/The level of expressed mRNA in the absence of chemical substance (yeast gene YGR213C)
0.4: The level of expressed mRNA in the presence of chemical substance/The level of expressed mRNA in the absence of chemical substance (yeast gene YJR004C)
1.4: The level of expressed mRNA in the presence of chemical substance/ (ratio to absence) (yeast gene YHL040C) | The level of expressed mRNA in the presence of chemical substance/The level of expressed mRNA in the absence of chemical substance (yeast gene YHR004C) | The level of expressed mRNA in the presence of chemical substance/in the absence of chemical substance (yeast gene YHR043C) | The level of expressed mRNA in the presence of chemical substance/ (ratio to absence) (yeast gene YHR094C) | The level of expressed mRNA in the presence of chemical substance/The level of expressed mRNA in the absence of chemical substance (yeast gene YHR139C) | The level of expressed mRNA in the presence of chemical substance/ (in its absence), gene YHR210C (yeast gene YHR210C, ratio of DNA chip fluorescence intensity to that without chemical substance) | The level of expressed mRNA in the presence of chemical substance/ (yeast gene YIL058W) | The level of expressed mRNA in the presence of chemical substance/ (yeast gene YJL036W) | The level of expressed mRNA in the presence of chemical substance/ (ratio to absence of chemical substance) (yeast gene YJL158C) | The level of expressed mRNA in the presence of chemical substance/ (in its absence), gene YJL167W (yeast gene YJL167W, ratio of DNA chip fluorescence intensity to that without chemical substance) | The level of expressed mRNA in the presence of chemical substance/ (yeast gene YJR085C) | The level of expressed mRNA in the presence of chemical substance/The level of expressed mRNA in the absence of chemical substance (yeast gene YJR086W) | The level of expressed mRNA in the presence of chemical substance/The level of expressed mRNA in the absence of chemical substance (yeast gene YKL008C)
2.1: The level of expressed mRNA in the presence of chemical substance/ (yeast gene YIL065C) | The level of expressed mRNA in the presence of chemical substance/ (ratio to absence) (yeast gene YJL094C) | The level of expressed mRNA in the presence of chemical substance/ (yeast gene YJL213W)
2.4: The level of expressed mRNA in the presence of chemical substance/in the absence of chemical substance (yeast gene YIL160C)
0.7: The level of expressed mRNA in the presence of chemical substance/in the absence of chemical substance (yeast gene YGR124W) | The level of expressed mRNA in the presence of chemical substance/ (ratio to absence) (yeast gene YGR138C) | The level of expressed mRNA in the presence of chemical substance/ (ratio to absence) (yeast gene YHR048W) | The level of expressed mRNA in the presence of chemical substance/The level of expressed mRNA in the absence of chemical substance (yeast gene YIL140W) | The level of expressed mRNA in the presence of chemical substance/ (yeast gene YKL187C)
0.6: The level of expressed mRNA in the presence of chemical substance/ (ratio to absence) (yeast gene YJL212C)
1.9: The level of expressed mRNA in the presence of chemical substance/in the absence of chemical substance (yeast gene YGR244C) | The level of expressed mRNA in the presence of chemical substance/in the absence of chemical substance (yeast gene YHR018C)
0.8: The level of expressed mRNA in the presence of chemical substance/in the absence of chemical substance (yeast gene YGR157W) | The level of expressed mRNA in the presence of chemical substance/ (yeast gene YHL044W) | The level of expressed mRNA in the presence of chemical substance/ (in its absence), gene YIL006W (yeast gene YIL006W, ratio of DNA chip fluorescence intensity to that without chemical substance) | The level of expressed mRNA in the presence of chemical substance/ (ratio to absence of chemical substance) (yeast gene YIL011W) | The level of expressed mRNA in the presence of chemical substance/ (ratio to absence) (yeast gene YIL022W) | The level of expressed mRNA in the presence of chemical substance/ (yeast gene YKL162C) | The level of expressed mRNA in the presence of chemical substance/ (ratio to absence of chemical substance) (yeast gene YKL164C)
2.9: The level of expressed mRNA in the presence of chemical substance/in the absence of chemical substance (yeast gene YJR073C)
1.5: The level of expressed mRNA in the presence of chemical substance/ (ratio to absence) (yeast gene YIL056W) | The level of expressed mRNA in the presence of chemical substance/in the absence of chemical substance (yeast gene YIR017C)
